This note sets out measurements from article PMC12508057, “Discovery of ETI41 and ETI60: novel selective endosomal Toll-like receptor inhibitors for the treatment of autoimmune diseases” (Experimental & Molecular Medicine, 2025).

Data set [1] is described as follows: MTT assay, cell survival in RAW 264.7. The format is cell-based. As to conditions: mouse, RAW 264.7 cell line, read-out: LC50. On the procedure:
After 24 h, the supernatant was removed, and 500 μg/ml of 3-[4,5-dimethylthiazol-2-yl]-2,5 diphenyl tetrazolium bromide (MTT) solution (Invivogen) was added. After a 3 h incubation, the supernatant was removed, and DMSO was added to dissolve the formazan dye.
One-tailed paired Student’s t-tests were performed using Microsoft Excel (Microsoft). […] The therapeutic index was calculated as […]. Animal experimental results are expressed as mean ± standard deviation and analyzed using SPSS v.20 (IBM SPSS Statistics). Homogeneity of variance was assessed using Levene’s test.
Data are from at least three independent experiments (n = 3) and statistical differences between the induced case and other cases were analyzed and verified using a one-tailed Student’s t-test (*P < 0.05, **P < 0.01, ***P < 0.001).

For a further data set, the system named is IMQ-induced psoriasis. Briefly: IMQ-induced psoriasis in mice. The format is in vivo, mouse. The settings on record: 60 mg/kg oral daily. On the procedure:
Six-week-old female C57BL/6J mice were assigned to the following treatment groups: vehicle (n = 5), IMQ (n = 5), ETI41 (n = 4) and ETI60 (n = 5). The mice were obtained from Orient Bio to evaluate the effects of ETI41 and ETI60 on induced psoriasis-like symptoms. This study was approved by the Institutional Animal Care and Use Committee (IACUC; approval no. 2014-0007). Psoriasis was induced using Aldara cream (3M Pharmaceuticals), which was applied topically at 62.5 mg/cm² daily from the day after hair removal until the fourth day. Mice were orally administered 60 mg/kg ETI41 or ETI60 daily commencing on the second day of induction. For IL-23-induced psoriasis, the mice were assigned to the following treatment groups: vehicle (n = 5), IL-23 (n = 5), ETI41 (n = 5), ETI60 (n = 5) and anti-IL-17 Ab (n = 5). Recombinant mouse IL-23 (0.25 mg/kg; BioLegend) was administered via intradermal injection around the ear daily, starting the day after hair removal and continuing until the eighth day. Positive control mice received intraperitoneal (IP) injections of 30 mg/kg anti-mouse IL-17A antibody (BioLegend) on days 2, 5 and 8, while test group mice were administered daily oral doses of 60 mg/kg of ETI41 or ETI60. Changes in body weight and Psoriasis Area and Severity Index (PASI) scores (erythema, scaling and thickness) were recorded daily. Mice were initially anesthetized in an induction chamber with a gas mixture of 4% isoflurane in 70:30 […] and O2, delivered at a flow rate of 0.8 l/min. Subsequently, the isoflurane concentration was reduced to 2%, and the mice were euthanized under anesthesia via endotracheal intubation. Skin samples were collected, fixed and stained with hematoxylin and eosin for histological analysis. Dermal and epidermal thicknesses were measured using a Leica DMi8 microscope (Leica). Immunohistochemical analyses were performed using primary antibodies against CD68 (R&D Systems, MAB101141), Ki-67 (Cell Signaling Technology, 12202), IL-17A (Novus Biologicals, NBP1-72027) and IL-23 (Novus Biologicals, NBP1-76697), followed by detection using biotinylated secondary antibodies (Vector Laboratories) and diaminobenzidine (Vector Laboratories) visualization. Fluorescence measurements for IL-23-induced psoriasis were performed using primary antibodies against CD68 and Ki-67, followed by Alexa Fluor-conjugated secondary antibodies (Life Technologies). Fluorescence was analyzed using a Leica DMi8 microscope.
Anti-IL17A antibody (Ab, 60 µg) was administered by IP injection as a positive control on days 2, 5 and 8. […] CD68 and Ki-67 expression patterns were determined in skin sections from a representative of each group using immunofluorescence. i Ear skin and epidermis thickness, CD68 expression and percentage of Ki-67 cells were examined from 4’,6-diamidino-2-phenylindole-stained cells. Statistical differences between the induced case and other cases were analyzed and verified using a one-tailed Student’s t-test (*P < 0.05, **P < 0.01, ***P < 0.001).

In a further data set the test system is endosomal TLRs. Briefly: Endosomal TLR-mediated TNF-α production, summary over cell lines. The data set is classed as cell-based. The settings on record: dose-dependent, without inducing cytotoxic effects. On the procedure: RAW 264.7 and differentiated THP-1 cells were seeded into 96-well plates at 2 × 10^4 cells per well, while Daudi cells were seeded at 5 × 10^4 cells per well. After stabilization for 30 min, cells were stimulated with specific TLR agonists for 4 or 24 h. Supernatants were diluted and transferred to precoated ELISA plates to measure TNF-α secretion using kits from Invitrogen. Optical absorbance was measured using a BioTek Synergy HTX multimode microplate reader, and data were interpolated using BioTek Gen5 software.
TLR activation triggers the NF-κB pathway, resulting in increased production of pro-inflammatory cytokines, such as TNF-α and IL-6.

Where two headings read alike, the source gives them in different places.

Take `Cc1cc2c(N)c3c(nc2n1CCCN(C)C)CCCCCC3` [ETI41]: the CC50 at 24 h in data set [1] was determined as 67.2 µM. Also, in the data set on IMQ-induced psoriasis, the “Dermal inflammatory cell infiltration” value is listed as “inhibited”; the Dermal thickness entry is “significantly reduced”; the Epidermal acanthosis entry is given as “significantly reduced”; the “IL-17A and IL-23 expression” value is “inhibited”. Besides, in the data set with IMQ-induced psoriasis, the Keratinocyte proliferation result is given as “significantly reduced” and the PASI scores entry is “significantly reduced”. In addition, the “TNF-α production by RAW 264.7 and Daudi cells” value with endosomal TLRs was “effectively inhibited”.
As to `COc1ccc2c3c(N)c4c(nc3n(CCCN(C)C)c2c1)CCCC4` [ETI60], in data set [1] (RAW 264.7 cells), the CC50 at 24 h turned out to be 51.2 µM. Further, in the data set with IMQ-induced psoriasis, the “Dermal inflammatory cell infiltration” value is listed as “inhibited”; the Dermal thickness entry is on record as “significantly reduced”; the Epidermal acanthosis result is on record as “significantly reduced”; the “IL-17A and IL-23 expression” value is “inhibited”. In the data set with IMQ-induced psoriasis, the Keratinocyte proliferation entry is “significantly reduced” and the PASI scores result is on record as “significantly reduced”. The “TNF-α production by RAW 264.7 and Daudi cells” value with endosomal TLRs is “effectively inhibited”.
